pIC50: −log10 of the molar value. “And” between values parts separate entries of the source, which are not always exact repeats. Equal entries are not always repeated.
System: PDC KRAS tumor spheroids with HUVEC/MSC, viability
Assay: Anticancer human tumor 349418-098-R-PDC patient-derived lung adenocarcinoma cell line growth inhibition [KRAS2]
Details: for viability, T/C: stronger effect = lower value
Text: Multicellular complex tumor spheroid response to RAS pathway inhibitors in combination with a targeted agents in patient-derived cell lines with oncogenic KRAS variants from multiple cancer types
A high-throughput screen of multi-cell type tumor spheroids was designed to identify active combinations of targeted small molecules and KRAS pathway inhibitors. Complex spheroids include a stromal component modeled by human endothelial cells (HUVEC) and fibroblasts modeled by human mesenchymal stem cells (MSCs). The concentration ranges selected for each drug and investigational agent were based upon clinically achievable concentrations if the clinical Cmax of the agent was known.
Compounds. The drugs and investigational agents: BI-3406 (NSC825286), BAY-293 (NSC824723), batoprotafib (TNO155; NSC825523), sotorasib (AMG 510; NSC818433), MRTX1257 (NSC819558), elimusertib (BAY 1895344; NSC800525), molibresib (GSK525762; NSC774829), temuterkib (LY3214996; NSC803410), venetoclax (NSC766270), alisertib (NSC759677), olaparib (NSC753686), talazoparib (NSC767125), erdafitinib (NSC781556), ipatasertib (NSC767898), cabozantinib (NSC761068), nintedanib (NSC756659), abemaciclib (NSC768073), docetaxel (NSC628503), trametinib (NSC758246), and sapanisertib (NSC764658) were obtained from the National Cancer Institute (NCI) Developmental Therapeutics Program Chemical Repository. The FDA-approved anticancer drug set is available from the Developmental Therapeutics Program. […] The stock solutions were prepared in dimethyl sulfoxide (DMSO, Sigma-Aldrich, St. Louis, MO, cat. D2650) at 800-fold the tested concentration and stored at -70 degrees C prior to their use. All drugs and investigational agents were tested over a range starting from a high concentration at or near the clinical Cmax and decreasing in half-log increments. If the clinical Cmax for an agent had not been determined, the highest concentration tested was 10 microM.
Cell Culture. All cells were maintained in an incubator at 37 degrees C and 5% CO2 with 95% humidity. The PDC lines were cultured according to standard operating procedures established by the NCI PDMR (https://pdmr.cancer.gov/sops/default.htm). Briefly, all PDCs were thawed and cultured in Matrigel-coated flasks prepared with a working solution of 1X Ham's F-12 nutrient mix, without supplementation (Invitrogen, Waltham, MA, cat. 11765054), 100 U/mL penicillin-streptomycin (Invitrogen, cat. 15140122), and 2.5% Matrigel (Corning Inc., Corning, NY, cat. 354248) for the first three passages. All PDCs were cultured in complete DMEM/F-12 media containing advanced DMEM/F-12 (Invitrogen, cat. 12634028), 4.9% defined fetal bovine serum, heat inactivated (HyClone Laboratories Inc., Logan, UT, cat. SH30070.03HI), 389 ng/mL hydrocortisone (Sigma-Aldrich, cat. H4001), 9.7 ng/mL human EGF recombinant protein (Invitrogen, cat. PHG0313), 23.4 microg/mL adenine (Sigma-Aldrich, cat. A2786), 97.3 U/mL penicillin-streptomycin (Invitrogen, cat. 15140122), 1.9 mM L-glutamine (Invitrogen, cat. 25030081), and 9.7 microM Y-27632 dihydrochloride (Tocris Bioscience, Bristol, United Kingdom, cat. 1254). The PDCs were cultured in complete DMEM/F12 media without 9.7 microM Y-27632 dihydrochloride for at least two passages prior to the screen. The established cell line HOP-62 was cultured in RPMI 1640 medium, HEPES (Invitrogen, cat. 22400105) with 10% defined fetal bovine serum (HyClone Laboratories Inc., cat. SH30070.03) and 2 mM L-glutamine (Invitrogen, cat. 25030081). The pooled donor HUVEC were cultured in endothelial cell growth medium 2 (PromoCell, Heidelberg, Germany, cat. C-22011) and the hMSC were cultured in mesenchymal stem cell growth medium 2 (PromoCell, cat. C-28009). For all experiments, HUVEC and hMSC were used at passages </=5, while the malignant cell lines were used at passages </=15. […]

[1] = compound alone, run of 07/19/2021
[2] = compound alone, run of 07/26/2021
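Also: spheroids exposed to compounds for seven days before readout.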

## C=CC(=O)N1CCN(c2nc(=O)n(-c3c(C)ccnc3C(C)C)c3nc(-c4c(O)cccc4F)c(F)cc23)C(C)C1 (stereo not drawn)
Compound 10 µM
  viability, T/C: 37.2% [middle of 17 runs]
[1]
  IC50: 5.54 µM [middle of 5 runs]
[2]
  IC50: 6.3 µM [middle of 6 runs]

## C=CC(=O)N1CCN(c2nc(OCC3CCCN3C)nc3c2CCN(c2cccc4cccc(C)c24)C3)CC1CC#N (stereo not drawn)
[1]
  IC50: 1.47 µM [middle of 5 runs]
[2]
  IC50: 1.33 µM [middle of 5 runs]

## CC(=O)Nc1cccc(-n2c(=O)n(C3CC3)c(=O)c3c(Nc4ccc(I)cc4F)n(C)c(=O)c(C)c32)c1
Compound 0.0001 µM
  viability, T/C: 31.7% [middle of 5 runs]
Compound 0.000316 µM
  viability, T/C: 22.2% [middle of 5 runs]
Compound 0.001 µM
  viability, T/C: 18.4% [middle of 5 runs]
Compound 0.00316 µM
  viability, T/C: 13.8% [middle of 5 runs]
Compound 0.01 µM
  viability, T/C: 9.89% [middle of 5 runs]
Compound 0.0316 µM
  viability, T/C: 7.25% [middle of 5 runs]
Curve of compound
  pIC50: > 10.00

## CC(=O)OC12COC1CC(O)C1(C)C(=O)C(O)C3=C(C)C(OC(=O)C(O)C(NC(=O)OC(C)(C)C)c4ccccc4)CC(O)(C(OC(=O)c4ccccc4)C21)C3(C)C (stereo not drawn)
Compound 0.01 µM
  viability, T/C: 15% [middle of 5 runs]
Compound 0.0316 µM
  viability, T/C: 17.7% [middle of 5 runs]
Compound 0.1 µM
  viability, T/C: 19.3% [middle of 5 runs]
Compound 0.316 µM
  viability, T/C: 22.6% [middle of 5 runs]
Compound 1 µM
  viability, T/C: 32.3% [middle of 4 runs]
Compound 3.16 µM
  viability, T/C: 25.7% [middle of 5 runs]
Curve of compound
  pIC50: > 8.00

## CC(C)NCC(C(=O)N1CCN(c2ncnc3c2C(C)CC3O)CC1)c1ccc(Cl)cc1 (stereo not drawn)
Compound 0.0316 µM
  viability, T/C: 93.4% [middle of 5 runs]
Compound 0.1 µM
  viability, T/C: 77.8% [middle of 5 runs]
Compound 0.316 µM
  viability, T/C: 49.3% [middle of 5 runs]
Compound 1 µM
  viability, T/C: 27.4% [middle of 5 runs]
Compound 3.16 µM
  viability, T/C: 17.1% [middle of 5 runs]
Compound 10 µM
  viability, T/C: 7.52% [middle of 5 runs]
Curve of compound
  IC50: 334 nM [middle of 5 runs]

## CC(C)n1nc(-c2ccc3oc(N)nc3c2)c2c(N)ncnc21
Compound 0.000316 µM
  viability, T/C: 87.2% [middle of 5 runs]
Compound 0.001 µM
  viability, T/C: 47.6% [middle of 5 runs]
Compound 0.00316 µM
  viability, T/C: 17.1% [middle of 5 runs]
Compound 0.01 µM
  viability, T/C: 10.7% [middle of 5 runs]
Compound 0.0316 µM
  viability, T/C: 9.1% [middle of 5 runs]
Compound 0.1 µM
  viability, T/C: 8.83% [middle of 5 runs]
Curve of compound
  IC50: 0.92 nM [middle of 5 runs]

## CC1(C)CCC(CN2CCN(c3ccc(C(=O)NS(=O)(=O)c4ccc(NCC5CCOCC5)c([N+](=O)[O-])c4)c(Oc4cnc5[nH]ccc5c4)c3)CC2)=C(c2ccc(Cl)cc2)C1
Compound 0.0316 µM
  viability, T/C: 101% [middle of 5 runs]
Compound 0.1 µM
  viability, T/C: 97.5% [middle of 5 runs]
Compound 0.316 µM
  viability, T/C: 91.1% [middle of 5 runs]
Compound 1 µM
  viability, T/C: 88.3% [middle of 5 runs]
Compound 3.16 µM
  viability, T/C: 21.2% [middle of 5 runs]
Compound 10 µM
  viability, T/C: 5.14% [middle of 5 runs]
Curve of compound
  IC50: 1.89 µM [middle of 5 runs]

## CC1COCCN1c1cc(-c2ccnn2C)c2ccnc(-c3ccn[nH]3)c2n1 (stereo not drawn)
Compound 0.1 µM
  viability, T/C: 10.9% [middle of 5 runs]
Compound 0.316 µM
  viability, T/C: 6.73% [middle of 5 runs]
Compound 1 µM
  viability, T/C: 5.15% [middle of 5 runs]
Compound 3.16 µM
  viability, T/C: 4.48% [middle of 5 runs]

## CC1OCC2(CCN(c3cnc(Sc4ccnc(N)c4Cl)c(N)n3)CC2)C1N (stereo not drawn)
Compound 0.0316 µM
  viability, T/C: 102% (2×) and 80.3%
Compound alone, run of 07/12/2021
  pIC50: 5.00 and < 5.00
[1]
  pIC50: < 5.00
[2]
  pIC50: < 5.00
Curve of compound
  pIC50: < 5.00

## CCN1CCN(Cc2ccc(Nc3ncc(F)c(-c4cc(F)c5nc(C)n(C(C)C)c5c4)n3)nc2)CC1
Compound 0.00316 µM
  viability, T/C: 60.9% [middle of 5 runs]
Compound 0.01 µM
  viability, T/C: 35.7% [middle of 5 runs]
Compound 0.0316 µM
  viability, T/C: 19.6% [middle of 5 runs]
Compound 0.1 µM
  viability, T/C: 16.7% [middle of 5 runs]
Compound 0.316 µM
  viability, T/C: 14.5% [middle of 5 runs]
Compound 1 µM
  viability, T/C: 5.13% [middle of 5 runs]

## CCNC(=O)CC1N=C(c2ccc(Cl)cc2)c2cc(OC)ccc2-n2c(C)nnc21 (stereo not drawn)
Compound 0.1 µM
  viability, T/C: 57.3% [middle of 5 runs]
Compound 0.316 µM
  viability, T/C: 30.4% [middle of 5 runs]
Compound 1 µM
  viability, T/C: 8.84% [middle of 5 runs]
Compound 3.16 µM
  viability, T/C: 2.06% [middle of 5 runs]
Compound 10 µM
  viability, T/C: 1.07% [middle of 5 runs]
Curve of compound
  IC50: 138 nM [middle of 5 runs]

## CN(C)C/C=C/C(=O)Nc1cc2c(Nc3ccc(F)c(Cl)c3)ncnc2cc1O[C@H]1CCOC1
Compound 0.001 µM
  viability, T/C: 94.4% [middle of 5 runs]
Compound 0.0316 µM
  viability, T/C: 99% [middle of 5 runs]
Compound 0.1 µM
  viability, T/C: 97.2% [middle of 5 runs]
Curve of compound
  pIC50: < 7.00

## CNCc1ccccc1-c1csc(C(C)Nc2nc(C)nc3cc(OC)c(OC)cc23)c1 (stereo not drawn)
Compound 10 µM
  viability, T/C: 0.1% [middle of 12 runs]
[1]
  IC50: 1.6 µM [middle of 5 runs]
[2]
  IC50: 1.09 µM [middle of 6 runs]

## COC(=O)c1ccc2c(C(=Nc3ccc(N(C)C(=O)CN4CCN(C)CC4)cc3)c3ccccc3)c(O)[nH]c2c1
Compound 3.16 µM
  viability, T/C: 24.1% [middle of 5 runs]
Compound 10 µM
  viability, T/C: 16.1% [middle of 5 runs]

## COc1cc(Nc2ncc3c(n2)-c2ccc(Cl)cc2C(c2c(F)cccc2OC)=NC3)ccc1C(=O)O
Compound 0.1 µM
  viability, T/C: 27.8% [middle of 5 runs]
Compound 0.316 µM
  viability, T/C: 33.1% [middle of 5 runs]
Compound 1 µM
  viability, T/C: 35.6% [middle of 5 runs]
Compound 3.16 µM
  viability, T/C: 33.9% [middle of 5 runs]
Compound 10 µM
  viability, T/C: 24.8% [middle of 5 runs]
Curve of compound
  pIC50: > 7.50 and 7.36

## COc1cc(OC)cc(N(CCNC(C)C)c2ccc3ncc(-c4cnn(C)c4)nc3c2)c1
Compound 0.0316 µM
  viability, T/C: 99% [middle of 4 runs]
Compound 0.1 µM
  viability, T/C: 102% [middle of 4 runs]
Compound 1 µM
  viability, T/C: 98.2% [middle of 4 runs]
Compound 3.16 µM
  viability, T/C: 38.9% [middle of 4 runs]
Compound 10 µM
  viability, T/C: 0.57% [middle of 4 runs]
Curve of compound
  IC50: 2.53 µM [middle of 4 runs]

## COc1cc2nccc(Oc3ccc(NC(=O)C4(C(=O)Nc5ccc(F)cc5)CC4)cc3)c2cc1OC
Compound 0.0316 µM
  viability, T/C: 102% [middle of 5 runs]
Compound 0.1 µM
  viability, T/C: 98.8% [middle of 5 runs]
Compound 0.316 µM
  viability, T/C: 94.4% [middle of 5 runs]
Compound 3.16 µM
  viability, T/C: 14.4% [middle of 5 runs]
Curve of compound
  IC50: 1.76 µM [middle of 5 runs]

## Cn1nccc1Nc1nccc(-c2cc3c(s2)C(C)(C)N(CCN2CCOCC2)C3=O)n1
Compound 0.0316 µM
  viability, T/C: 56.4% [middle of 5 runs]
Compound 0.1 µM
  viability, T/C: 40.2% [middle of 5 runs]
Compound 0.316 µM
  viability, T/C: 21.2% [middle of 5 runs]
Compound 1 µM
  viability, T/C: 14.3% [middle of 5 runs]
Compound 3.16 µM
  viability, T/C: 7.8% [middle of 5 runs]
Compound 10 µM
  viability, T/C: 5.9% [middle of 5 runs]
Curve of compound
  IC50: 52.2 nM [middle of 5 runs]

## Cn1ncnc1[C@H]1c2n[nH]c(=O)c3cc(F)cc(c23)N[C@@H]1c1ccc(F)cc1
Compound 0.000316 µM
  viability, T/C: 104% [middle of 5 runs]
Compound 0.001 µM
  viability, T/C: 96.9% [middle of 5 runs]
Compound 0.00316 µM
  viability, T/C: 96.4% [middle of 5 runs]
Compound 0.01 µM
  viability, T/C: 94.2% [middle of 5 runs]
Compound 0.0316 µM
  viability, T/C: 86.2% [middle of 5 runs]
Compound 0.1 µM
  viability, T/C: 78.7% [middle of 5 runs]
Curve of compound
  pIC50: < 7.00

## O=C(c1cc(Cc2n[nH]c(=O)c3ccccc23)ccc1F)N1CCN(C(=O)C2CC2)CC1
Compound 0.0316 µM
  viability, T/C: 91.8% [middle of 5 runs]
Compound 0.1 µM
  viability, T/C: 94.4% [middle of 5 runs]

From PubChem BioAssay AID1963866 (Molecular Pharmacology Branch, DTP, NCI, 2024)
